Key:
[1] = Intrinsic clearance in human liver microsomes assessed per mg of protein by LC-MS/MS analysis; type: ADME; details: read-out: CLH
[2] = test system: Human immunodeficiency virus 1; assay: Antiviral activity against HIV1 NL4-3 infected in human MT2 cells after 3 days by human JC53BL cell-based beta-galactosidase reporter gene assay; type: functional, organism-based; details: Human immunodeficiency virus 1, NL4-3, JC53BL, 72 h
[3] = Intrinsic clearance in human hepatocytes assessed assessed per million of cells by LC-MS/MS analysis; type: ADME, cell-based, Hepatocyte; details: read-out: CLH
[4] = Intrinsic clearance in human liver microsomes assessed per mg of protein by LC-MS/MS analysis in presence of UDPGA; type: ADME; details: read-out: CLH
[5] = Aqueous solubility of the compound at pH 7.4; type: physicochemical; details: buffer
[6] = Inhibition of DNA polymerase alpha (unknown origin); parameters: species or system Homo sapiens
[7] = Inhibition of DNA polymerase beta (unknown origin); parameters: species or system Homo sapiens
[8] = Inhibition of DNA polymerase gamma (unknown origin); parameters: species or system Homo sapiens

microsomal CLint [1]	IC50 [2]	hepatocyte CLint [3]	microsomal CLint [4]	solubility [5]	IC50 [8]	SMILES	IC50 [6]	IC50 [7]
< 8 µL/min/mg	4.1 nM	23.2 µL/min/1e6 cells	5 µL/min/mg	–	–	CCOc1cc(F)ccc1Cn1ccc2c3c(ncc21)C(=O)N(O)CC3	–	–
< 8 µL/min/mg	> 7480 nM	28.8 µL/min/1e6 cells	4.8 µL/min/mg	–	–	COc1cc(F)ccc1Cn1ccc2c3c(ncc21)C(=O)N(O)C3(C)C	–	–
32 µL/min/mg	6 nM	5.9 µL/min/1e6 cells	3.5 µL/min/mg	< 1 µg/mL	–	COCCNC(=O)c1c(O)c2ncc3c(ccn3Cc3ccc(F)cc3)c2[nH]c1=O	–	–
12.5 µL/min/mg	19 nM	34.3 µL/min/1e6 cells	18 µL/min/mg	–	–	COc1cc(Cn2ccc3c4c(ncc32)C(=O)N(O)CC4)ccc1F	–	–
21.3 µL/min/mg	451 nM	14.1 µL/min/1e6 cells	80.2 µL/min/mg	–	–	Cc1nc2c(ncc3c2ccn3Cc2ccc(F)cc2)c(=O)n1O	–	–
–	1 nM	64.7 µL/min/1e6 cells	170 µL/min/mg	–	–	CC1(C)CN(O)C(=O)c2ncc3c(ccn3Cc3ccc(F)cc3)c21	–	–
–	–	–	–	–	–	C[C@@]1(CO)[C@H](O)CC[C@@]2(C)[C@H]1CC[C@H]1C[C@@H]3C[C@@]12CC[C@]3(O)CO [APHIDICOLIN]	7170 nM	1960 nM
–	–	–	–	–	3700 nM	Cc1cn([C@H]2C[C@H](N=[N+]=[N-])[C@@H](COP(=O)(O)OP(=O)(O)OP(=O)(O)O)O2)c(=O)[nH]c1=O [ZIDOVUDINE TRIPHOSPHATE]	7170 nM	1960 nM

Source: ChEMBL document CHEMBL3217509, “Discovery of an HIV integrase inhibitor with an excellent resistance profile” (Medchemcomm, 2013)
